Source: a melting point compilation (Tetko et al.; mined from patent text by program, amines drawn as free bases though some values may be those of a salt)

melting point [°C] | SMILES
118 to 119 | CCOC(=O)c1ccc(-c2nc(COc3ccc(COc4nn(-c5ccccc5)cc4/C=C\c4csc(CC)n4)cc3OC)c(C)o2)s1
176 to 178 | Nc1cccc(NC(=O)OCc2cc3cc(-c4ccc(F)cc4)ccc3o2)c1C(=O)O
> 250 | Cc1cc(=O)n(-c2cc3[nH]c(=O)sc3cc2F)c(=O)n1C
130 to 131 | CCn1ncc2c3onc(-c4cccc(OC)c4)c3cnc21
129 to 130 | Cn1cc(C(=O)c2ccc(Cl)cc2)cc1C(=O)CN1CCCCC1
149 to 150 | CCn1nnn(-c2cc(O)c(Cl)cc2Cl)c1=O
< 50 | CC=Cc1cccc2c1OC(c1ccccc1)CC2=O (stereo not given)
182 to 184 | COc1cccc(OC)c1C(=O)NCC(=O)N1c2ccccc2N(Cc2ccccc2)C(=O)[C@H]2CCC[C@H]21 (relative stereo)
172 to 175 | NS(=O)(=O)c1cc2c(s1)CNCC2
140 to 142 | C=C(C)c1cc(NC(=O)N2CCN(c3cc(C)cc(C)c3)CC2)c(OC)nc1C
217 to 218 | CCOC(=O)Nc1cc2c3ccccc3n(Cc3ccccc3)c2cn1
154 to 155 | Cc1oc(-c2ccccc2)nc1COc1ccc(CCCC2SC(=O)NC2=O)cc1C(F)(F)F (stereo not given)
180 to 182 | Clc1ccc2c(c1)C(n1ccnc1)c1ccccc1CO2 (stereo not given)
96 to 98 | CC1(C)COS(=O)Oc2ccc(OS(C)(=O)=O)cc21 (stereo not given)
113 to 115 | COc1c2c(cc3c(C)cc(=O)oc13)CC(C)O2 (stereo not given)
170 | O=C(CN1C(=O)c2ccccc2C1=O)Nc1cccc(OC(F)(F)F)c1
152 to 154 | COc1ccc(-c2c(Cl)nc(C)nc2NS(=O)(=O)c2ccc(OC)cc2)cc1
190 to 192 | COc1ccc(C2=N[C@H](c3ccccc3)CO2)cc1C#CCN(O)C(N)=O
95 to 97 | C=CCN(C(C)C)C(C)CC1=C(c2ccc(OC)cc2)CCCNC1=O (stereo not given)
248 to 250 | COc1ccc(OC)c(Cc2n[nH]c3c2c(=O)n(-c2ccccc2)c2ncccc32)c1
142 to 145 | CS(=O)(=O)c1ccc(CC(N)C(O)C(=O)C2(C(=O)NC(CCCNC(=N)N)C(=O)O)CCCC2N)cc1 (stereo not given)
274 to 275 | O=C(O)c1cnc2occc2c1
174 | O=c1oc2ccccc2c(O)c1[N+](=O)[O-]

melting point [°C] | SMILES
276 | O=C(O)c1ccc2c(c1)C(=O)c1ccccc1S2(=O)=O
82 to 83 | Cc1cc2c(c(C)c1NCc1ccccc1)C(c1ccc(C(C)C)cc1)CO2 (stereo not given)
207 to 210 | O=C(Nc1cc(C(F)(F)F)c[nH]c1=O)c1ccccc1
234 to 235 | O=C(O)CCC(=O)c1ccc(-n2cnc3c2CCCC3)cc1
83 to 84 | C[C@H](O)CCC[C@H](O)CCCCCc1cccc(O)c1C(=O)O
229 | CN1C(=O)CC[C@]2(C)c3ccc(-c4ccc(S(C)(=O)=O)cc4)cc3CC[C@@H]12
183 to 184 | COc1c(Cl)ccc(C(=O)O)c1F
126 to 127 | CCOC(=O)C1Cc2ccc(C(=O)c3ccc(NC(C)=O)c(Cl)c3)cc2C1 (stereo not given)
> 290 | Cc1c(C2=C(c3cn(C)c4ccccc34)C(=O)NC2=O)c2ccccc2n1C
89 to 91.5 | O=C(O)CC[C@@H](CSc1ccc(Cc2ccccc2)cc1)NC(=O)CCCCCCc1ccccc1
277 to 278 | O=C(O)c1ccccc1C(=O)N1CCN(c2cc3c(cc2F)c(=O)c(C(=O)O)c2sccn23)CC1
235 to 236 | Cc1c(NC(=O)Nc2ccc(-n3nc(C(F)(F)F)cc3C(F)(F)F)cc2)cccc1[N+](=O)[O-]
110 to 112 | Fc1ccc(Cc2ccc(NC3=NCCN3)cc2)cc1
214 to 217 | CC(=O)OCc1c(-c2cc(Nc3cc(CN4CCC4)n(C)n3)c(=O)n(C)n2)cccc1-n1ncc2cc(C(C)(C)C)cc(F)c2c1=O
153 to 154 | CC1(C)Cc2sccc2C(=O)N1
173 to 175 | O=C(O)c1ccccc1-c1nnc(-c2ccccc2)o1
81 to 83 | O=C(Cc1ccccc1SCc1ccccc1)Nc1ccccc1
298 to 300 | Cc1c(C=CCO)[nH]c(=O)c2c1ccc1nc(Nc3c(Cl)cccc3Cl)n(C)c12
200 to 202 | CC(=O)NC[C@H]1CN(c2ccc(-c3noc(C#N)n3)c(F)c2)C(=O)O1
133 to 135 | CC1(C)OCC(N(c2nc(Cl)nc(N(C3COC(C)(C)OC3)C3COC(C)(C)OC3)n2)C2COC(C)(C)OC2)CO1
201 to 204 | Cc1c(-c2ncc(Cl)cc2F)nn(C)c1C(N)=O
88 to 90 | Cc1cccc2c(-c3ccc(Cl)cc3)noc12
99 to 101 | O=C(Cc1cccs1)c1c(O)sc2ccccc12

melting point [°C] | SMILES
177 to 178 | C[C@H](c1ccccc1)N1C(=O)N(C(=O)OC(C)(C)C)[C@@H]2C(=O)OC[C@@H]21
110 to 112 | O=Cc1ccc(OC(=O)c2ccccc2)c([N+](=O)[O-])c1
130 to 131 | COc1cc(C)ccc1S(=O)(=O)N1CCC(=O)C(C(c2ccccc2)c2ccccc2)C1 (stereo not given)
186 | CCC1c2ncn(C)c2CCN1C(=S)NC(C)C (stereo not given)
100 to 102 | CCCC(=O)C=CC(=O)O
76 to 76.5 | CCCCCCCCCCCCCCCC(=O)N[C@@H](CSC[C@H](O)[C@H](O)CO)C(=O)O
154 to 156 | CCOCc1cc(N)ccc1N1C(=O)c2ccc(Cl)cc2C1=O
177 to 178 | CCOC(=O)c1cc(=O)c2c(OCCn3c(=O)sc4ccc(Cl)cc43)cccc2o1
110 | Cc1ccccc1-c1nc(-c2ccccc2C)nc(-c2ccccc2C)n1
177 to 179 | O=C(Nc1cccc2cc(Cn3ccnc3)cnc12)c1c(Cl)cccc1Cl
140 to 143 | Nc1cccc(-c2ccc(CCN3Cc4ccccc4C3)cc2)n1
84 to 89 | OC(CNC1CCc2ccccc2C1)COc1cccc(C(F)(F)F)c1 (stereo not given)
> 310 | CC(=O)Nc1ncc2c(n1)-c1sc(NC(C)=O)nc1CC2
142 to 145 | COc1ccc(-c2ncn(CCC(C)(C)NCC(O)c3ccc(O)c(CO)c3)n2)cc1 (stereo not given)
110 | CC(C)(C)OC(=O)CO/N=C/c1cccc([N+](=O)[O-])c1
143 to 144 | O=C(Nc1ccc(-n2nc(C(F)(F)F)cc2Br)cc1)c1ccncc1F
95 to 100 | CCOCc1nc2c(N)nc3ccccc3c2n1CC1(NC(=O)OCC)CCCCC1
161 to 163 | COC(c1ccc(Cl)c2nc3n(c12)CCCN3c1ccc(Cl)cc1Cl)C(F)(F)F (stereo not given)
138 to 140 | NC(=O)CNC(=O)COc1ccccc1
142 to 143 | CCn1nc(C)c(CN(C(=O)C2CCCc3ccccc32)c2ccc(C(C)C)cc2)c1C (stereo not given)
148 to 149 | O=C1N[C@H](Cc2cccc(OCC(F)(F)F)c2)[C@H](c2ccc(F)cc2)O1 (racemic)

SMILES | melting point [°C]
CN1C(=O)C(C)(C)N=C(c2ccccc2F)c2cc([N+](=O)[O-])cc(Br)c21 | 228
Cc1c(Br)c(N2CC[C@H](N(C)C)C2)c2oc(C3CC3)nc2c1C#N | 82 to 86
CC(=O)NCC1CN=C(c2ccccc2F)c2cc(Cl)ccc2N1C(C)=O (stereo not given) | 213 to 215
